Test results as given in US20260022142A1, “MACROCYCLIC IMMUNOMODULATORS” (Bristol-Myers Squibb Company, priority 2022, published 2026).
Bridge positions count the residues as written; N and C are the ends. Square brackets hold non-standard residues; d marks the D form. Peptide text beside a SMILES is read from it. * marks the point of attachment. ξ: configuration not given here. Bip = N[C@@H](Cc1ccc(-c2ccccc2)cc1)C(=O)O; Phe(3-Me) = Cc1cccc(C[C@H](N)C(=O)O)c1; Cha = N[C@@H](CC1CCCCC1)C(=O)O; Cit = NC(=O)NCCC[C@H](N)C(=O)O; Thr(3ξ) = CC(O)[C@H](N)C(=O)O; Carboxymethyl = O=C(O)C*; Orn = NCCC[C@H](N)C(=O)O; Aun = NCCCCCCCCCCC(=O)O; Dab = NCC[C@H](N)C(=O)O; Dap = NC[C@H](N)C(=O)O; AEEA = NCCOCCOCC(=O)O

Molecular target: T1, PD-1/PD-L1 interaction (PE-labeled human PD-L1-Ig binding to Jurkat cell line over-expressing human PD-1) (Homo sapiens, UniProt Q15116)
T1 construct: expressed in transfected cells; host or cells: Jurkat
Test: Jurkat-PD-1 Cell Binding High-Content Screening Assay (CBA)
Format: cell-based
Conditions: Jurkat cell line over-expressing human PD-1; PE-labeled PD-L1-Ig 20 nM final; read-out: Jurkat hPD1-PDL1 IC50
Outline: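 Human PD-L1-Ig carrying a covalent PE label on its Ig tag serves as the probe, applied at 20 nM final to compound-treated (2 h, 37° C) Jurkat-hPD-1 cells in medium with 10% fetal calf serum. After one hour, fixation and nuclear staining precede high-content image analysis.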

T1 sequence (Q15116 25-288): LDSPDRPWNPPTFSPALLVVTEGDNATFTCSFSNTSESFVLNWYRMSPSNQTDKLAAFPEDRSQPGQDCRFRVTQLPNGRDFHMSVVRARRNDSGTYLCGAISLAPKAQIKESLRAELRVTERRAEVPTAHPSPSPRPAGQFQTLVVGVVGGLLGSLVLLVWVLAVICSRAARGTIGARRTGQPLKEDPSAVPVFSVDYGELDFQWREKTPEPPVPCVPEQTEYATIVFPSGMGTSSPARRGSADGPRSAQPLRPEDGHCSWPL

| SMILES | IC50 |
| --- | --- |
| Cc1cccc(C[C@@H]2NC(=O)[C@H](CC(=O)O)NC(=O)[C@H](Cc3ccc(OCC(=O)O)cc3)NC(=O)[C@H](CN)NC(=O)CSC[C@@H](C(=O)NCCOCCOCC(=O)NCCCCCCCCCCC(=O)O)NC(=O)[C@H](CN)NC(=O)[C@H](C(C)C)NC(=O)[C@H](CC3CCCCC3)NC(=O)[C@H](CCN)NC(=O)[C@@H](CC(C)C)NC(=O)[C@H](CCCN)NC(=O)[C@H](C(C)C)NC(=O)[C@H](Cc3ccc(-c4ccccc4)cc3)NC(=O)[C@H](C(C)C)NC2=O)c1 [Compound 2566] ({CH2CO}-[Dap]Y(Carboxymethyl)D[Phe(3-Me)]V[Bip]V[Orn][dL][Dab][Cha]V[Dap]C[AEEA][Aun]-OH; thioether N-14) | 9.4 nM |
| Cc1cccc(C[C@@H]2NC(=O)[C@H](CC(=O)O)NC(=O)[C@H](Cc3ccc(OCC(=O)O)cc3)NC(=O)[C@H](CN)NC(=O)CSC[C@@H](C(=O)NCCOCCOCC(=O)NCCCCCCCCCCC(=O)O)NC(=O)[C@H](CCCN)NC(=O)[C@H](C(C)C)NC(=O)[C@H](CC3CCCCC3)NC(=O)[C@H](CCN)NC(=O)[C@@H](CC(C)C)NC(=O)[C@H](CCCN)NC(=O)[C@H](C(C)C)NC(=O)[C@H](Cc3ccc(-c4ccccc4)cc3)NC(=O)[C@H](C(C)C)NC2=O)c1 [Compound 2567] ({CH2CO}-[Dap]Y(Carboxymethyl)D[Phe(3-Me)]V[Bip]V[Orn][dL][Dab][Cha]V[Orn]C[AEEA][Aun]-OH; thioether N-14) | 5.3 nM |
| Cc1cccc(C[C@@H]2NC(=O)[C@H](CC(=O)O)NC(=O)[C@H](Cc3ccc(OCC(=O)O)cc3)NC(=O)[C@H](CN)NC(=O)CSC[C@@H](C(=O)NCCOCCOCC(=O)NCCCCCCCCCCC(=O)O)NC(=O)[C@H](CCCNC(=N)N)NC(=O)[C@H](C(C)C)NC(=O)[C@H](CC3CCCCC3)NC(=O)[C@H](CCN)NC(=O)[C@@H](CC(C)C)NC(=O)[C@H](CCCN)NC(=O)[C@H](C(C)C)NC(=O)[C@H](Cc3ccc(-c4ccccc4)cc3)NC(=O)[C@H](C(C)C)NC2=O)c1 [Compound 2568] ({CH2CO}-[Dap]Y(Carboxymethyl)D[Phe(3-Me)]V[Bip]V[Orn][dL][Dab][Cha]VRC[AEEA][Aun]-OH; thioether N-14) | 12.7 nM |
| Cc1cccc(C[C@@H]2NC(=O)[C@H](CC(=O)O)NC(=O)[C@H](Cc3ccc(OCC(=O)O)cc3)NC(=O)[C@H](CN)NC(=O)CSC[C@@H](C(=O)N[C@@H](CCN)C(=O)NCCOCCOCC(=O)NCCCCCCCCCCC(=O)O)NC(=O)[C@H](C(C)O)NC(=O)[C@H](Cc3ccc(O)cc3)NC(=O)[C@H](CC3CCCCC3)NC(=O)[C@H](CCN)NC(=O)[C@@H](CC(C)C)NC(=O)[C@H](CCCN)NC(=O)[C@H](Cc3ccc(O)cc3)NC(=O)[C@H](Cc3ccc(-c4ccccc4)cc3)NC(=O)[C@H](Cc3ccc(O)cc3)NC2=O)c1 (stereo partly drawn) [Compound 2569] ({CH2CO}-[Dap]Y(Carboxymethyl)D[Phe(3-Me)]Y[Bip]Y[Orn][dL][Dab][Cha]Y[Thr(3ξ)]C[Dab][AEEA][Aun]-OH; thioether N-14) | 80.2 nM |
| Cc1cccc(C[C@@H]2NC(=O)[C@H](CC(=O)O)NC(=O)[C@H](Cc3ccc(OCC(=O)O)cc3)NC(=O)[C@H](CN)NC(=O)CSC[C@@H](C(=O)N[C@@H](CCN)C(=O)NCCOCCOCC(=O)NCCCCCCCCCCC(=O)O)NC(=O)[C@H](CO)NC(=O)[C@H](Cc3ccc(O)cc3)NC(=O)[C@H](CC3CCCCC3)NC(=O)[C@H](CCN)NC(=O)[C@@H](CC(C)C)NC(=O)[C@H](CCCN)NC(=O)[C@H](Cc3ccc(O)cc3)NC(=O)[C@H](Cc3ccc(-c4ccccc4)cc3)NC(=O)[C@H](Cc3ccc(O)cc3)NC2=O)c1 [Compound 2570] ({CH2CO}-[Dap]Y(Carboxymethyl)D[Phe(3-Me)]Y[Bip]Y[Orn][dL][Dab][Cha]YSC[Dab][AEEA][Aun]-OH; thioether N-14) | 31.9 nM |
| Cc1cccc(C[C@@H]2NC(=O)[C@H](CC(=O)O)NC(=O)[C@H](Cc3ccc(OCC(=O)O)cc3)NC(=O)[C@H](CN)NC(=O)CSC[C@@H](C(=O)N[C@@H](CCN)C(=O)NCCOCCOCC(=O)NCCCCCCCCCCC(=O)O)NC(=O)[C@H](C(C)O)NC(=O)[C@H](Cc3ccc(O)cc3)NC(=O)[C@H](CC3CCCCC3)NC(=O)[C@H](CCN)NC(=O)[C@@H](CC(C)C)NC(=O)[C@H](CCCN)NC(=O)[C@H](CCCNC(N)=O)NC(=O)[C@H](Cc3ccc(-c4ccccc4)cc3)NC(=O)[C@H](Cc3ccc(O)cc3)NC2=O)c1 (stereo partly drawn) [Compound 2571] ({CH2CO}-[Dap]Y(Carboxymethyl)D[Phe(3-Me)]Y[Bip][Cit][Orn][dL][Dab][Cha]Y[Thr(3ξ)]C[Dab][AEEA][Aun]-OH; thioether N-14) | 13 nM |
| Cc1cccc(C[C@@H]2NC(=O)[C@H](CC(=O)O)NC(=O)[C@H](Cc3ccc(OCC(=O)O)cc3)NC(=O)[C@H](CN)NC(=O)CSC[C@@H](C(=O)N[C@@H](CCN)C(=O)NCCOCCOCC(=O)NCCCCCCCCCCC(=O)O)NC(=O)[C@H](CCCN)NC(=O)[C@H](Cc3ccc(O)cc3)NC(=O)[C@H](CC3CCCCC3)NC(=O)[C@H](CCN)NC(=O)[C@@H](CC(C)C)NC(=O)[C@H](CCCN)NC(=O)[C@H](CCCNC(N)=O)NC(=O)[C@H](Cc3ccc(-c4ccccc4)cc3)NC(=O)[C@H](Cc3ccc(O)cc3)NC2=O)c1 [Compound 2572] ({CH2CO}-[Dap]Y(Carboxymethyl)D[Phe(3-Me)]Y[Bip][Cit][Orn][dL][Dab][Cha]Y[Orn]C[Dab][AEEA][Aun]-OH; thioether N-14) | 21.6 nM |
| Cc1cccc(C[C@@H]2NC(=O)[C@H](CC(=O)O)NC(=O)[C@H](Cc3ccc(OCC(=O)O)cc3)NC(=O)[C@H](CN)NC(=O)CSC[C@@H](C(=O)N[C@@H](CCN)C(=O)NCCOCCOCC(=O)NCCCCCCCCCCC(=O)O)NC(=O)[C@H](C(C)O)NC(=O)[C@H](Cc3ccc(O)cc3)NC(=O)[C@H](CC3CCCCC3)NC(=O)[C@H](CCN)NC(=O)[C@@H](CC(C)C)NC(=O)[C@H](CCCN)NC(=O)[C@H](C(C)C)NC(=O)[C@H](Cc3ccc(-c4ccccc4)cc3)NC(=O)[C@H](Cc3ccc(O)cc3)NC2=O)c1 (stereo partly drawn) [Compound 2573] ({CH2CO}-[Dap]Y(Carboxymethyl)D[Phe(3-Me)]Y[Bip]V[Orn][dL][Dab][Cha]Y[Thr(3ξ)]C[Dab][AEEA][Aun]-OH; thioether N-14) | 47.6 nM |
| Cc1cccc(C[C@@H]2NC(=O)[C@H](CC(=O)O)NC(=O)[C@H](Cc3ccc(OCC(=O)O)cc3)NC(=O)[C@H](CN)NC(=O)CSC[C@@H](C(=O)N[C@@H](CCN)C(=O)NCCOCCOCC(=O)NCCCCCCCCCCC(=O)O)NC(=O)[C@H](CCCN)NC(=O)[C@H](Cc3ccc(O)cc3)NC(=O)[C@H](CC3CCCCC3)NC(=O)[C@H](CCN)NC(=O)[C@@H](CC(C)C)NC(=O)[C@H](CCCN)NC(=O)[C@H](C(C)C)NC(=O)[C@H](Cc3ccc(-c4ccccc4)cc3)NC(=O)[C@H](Cc3ccc(O)cc3)NC2=O)c1 [Compound 2574] ({CH2CO}-[Dap]Y(Carboxymethyl)D[Phe(3-Me)]Y[Bip]V[Orn][dL][Dab][Cha]Y[Orn]C[Dab][AEEA][Aun]-OH; thioether N-14) | 28.3 nM |
| Cc1cccc(C[C@@H]2NC(=O)[C@H](CC(=O)O)NC(=O)[C@H](Cc3ccc(OCC(=O)O)cc3)NC(=O)[C@H](CN)NC(=O)CSC[C@@H](C(=O)N[C@@H](CCN)C(=O)NCCOCCOCC(=O)NCCCCCCCCCCC(=O)O)NC(=O)[C@H](C(C)O)NC(=O)[C@H](C(C)C)NC(=O)[C@H](CC3CCCCC3)NC(=O)[C@H](CCN)NC(=O)[C@@H](CC(C)C)NC(=O)[C@H](CCCN)NC(=O)[C@H](Cc3ccc(O)cc3)NC(=O)[C@H](Cc3ccc(-c4ccccc4)cc3)NC(=O)[C@H](Cc3ccc(O)cc3)NC2=O)c1 (stereo partly drawn) [Compound 2575] ({CH2CO}-[Dap]Y(Carboxymethyl)D[Phe(3-Me)]Y[Bip]Y[Orn][dL][Dab][Cha]V[Thr(3ξ)]C[Dab][AEEA][Aun]-OH; thioether N-14) | 10.2 nM |
